Measured values published in patent publication US20210269434A1, “TRICYCLIC COMPOUNDS AS INHIBITORS OF KRAS” (Incyte Corporation, priority 2020, published 2021).

Key:
[1] = system: MIA PaCa-2 (KRAS G12C) cells; assay: Cellular pERK HTRF assay (KRAS_G12C pERK); type: cell-based, human; settings: Homo sapiens, MIA PaCa-2, 4 hours incubation, read-out: G12C_pERK
In short: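 MIA PaCa-2 cells plated overnight, then exposed to compound for 4 h at 37 °C (G12C compounds). Phospho-ERK1/2 measured in lysates by HTRF (665/620 nm) after overnight antibody incubation; IC50 from percent inhibition versus log concentration.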

KRAS G12C = KRAS G12C (Homo sapiens, UniProt P01116, G12C); assay: GDP-GTP exchange assay (KRAS_G12C exchange); type: biochemical; settings: bodipy-GDP loaded KRAS G12C 2.5 nM, SOS1 150 nM, GppNHp; 2 hours pre-incubation, 2 hours reaction; read-out: G12C_exchange
In short: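 Fluorescence exchange of bodipy-GDP for GppNHp, SOS1-driven, read at 485/520 nm; IC50 from four-parameter variable-slope fit. Both mutants used 2.5 nM final labelled protein and a 2 h compound pre-incubation. G12C reaction had 500 uM GppNHp and 150 nM SOS1 for 2 h; G12D ran 4 h.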

KRAS G12C, sequence (P01116 1-188 isoform P01116-2 G12C): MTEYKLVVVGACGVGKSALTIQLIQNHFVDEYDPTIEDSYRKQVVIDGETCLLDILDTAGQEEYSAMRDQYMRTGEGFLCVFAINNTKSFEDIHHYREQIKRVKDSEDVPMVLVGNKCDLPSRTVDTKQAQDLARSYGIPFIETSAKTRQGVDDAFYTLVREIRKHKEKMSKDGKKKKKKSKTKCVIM

| SMILES | IC50 [1] | IC50 (KRAS G12C) |
| --- | --- | --- |
| C=CC(=O)N1CC[C@H](n2nnc3c(OC[C@@H]4CCCN4C)nc4c(Cl)c(-c5ccc(F)c6cccnc56)c(Cl)cc4c32)C[C@H]1CC#N (single isomer, unassigned) [Example 276a] | ≤ 100 nM | ≤ 100 nM |
| CC#CC(=O)N1CC[C@H](n2nnc3c(N4CC(N(C)C)C4)nc4c(Cl)c(-c5cccc6cccnc56)c(Cl)cc4c32)C[C@H]1CC#N (single isomer, unassigned) [Example 277a] | ≤ 100 nM | ≤ 100 nM |
| CC#CC(=O)N1CC[C@H](n2nnc3c(OC[C@@H]4CCCN4C)nc4c(Cl)c(-c5cccc6cccnc56)c(Cl)cc4c32)C[C@H]1CC#N (single isomer, unassigned) [Example 279a] | ≤ 100 nM | ≤ 100 nM |
| CC#CC(=O)N1CC[C@H](n2nnc3c(OC[C@@H]4CCCN4C)nc4c(Cl)c(-c5cc(F)cc6cccnc56)c(Cl)cc4c32)C[C@H]1CC#N (single isomer, unassigned) [Example 280a] | ≤ 100 nM | ≤ 100 nM |
| C=CC(=O)N1CC[C@H](n2nnc3c(N4CC(N(C)C)C4)nc4c(Cl)c(-c5cccc6cccnc56)c(Cl)cc4c32)C[C@H]1CC#N (single isomer, unassigned) [Example 283a] | ≤ 100 nM | ≤ 100 nM |
| C=CC(=O)N1CC[C@H](n2nnc3c(N4CC(N(C)C)C4)nc4c(Cl)c(-c5cc(F)cc6cccnc56)c(Cl)cc4c32)C[C@H]1CC#N (single isomer, unassigned) [Example 284a] | ≤ 100 nM | ≤ 100 nM |
| C=CC(=O)N1CC[C@H](n2nnc3c(OC[C@@H]4CCCN4C)nc4c(Cl)c(-c5cccc6cccnc56)c(Cl)cc4c32)C[C@H]1CC#N (single isomer, unassigned) [Example 288a] | ≤ 100 nM | ≤ 100 nM |
| C=CC(=O)N1CC[C@H](n2nnc3c(OC[C@@H]4CCCN4C)nc4c(Cl)c(-c5cc(F)cc6cccnc56)c(Cl)cc4c32)C[C@H]1CC#N (single isomer, unassigned) [Example 289a] | ≤ 100 nM | ≤ 100 nM |
| C=CC(=O)N1CCC(n2cnc3c(N4CC(N(C)C)C4)nc4c(F)c(-c5cc(O)cc6ccccc56)c(Cl)cc4c32)CC1 [Example 9, 1-(4-(8-chloro-4-(3-(dimethylamino)azetidin-1-yl)-6-fluoro-7-(3-hydroxy-naphthalen-1-yl)-1H-imidazo[4,5-c]quinolin-1-yl)piperidin-1-yl)prop-2-en-1-one] | 100 to 1000 nM | ≤ 100 nM |
| C=CC(=O)N1CCC(n2c(=O)[nH]c3c(OC[C@@H]4CCCN4C)nc4c(F)c(-c5cc(O)cc6ccccc56)c(Cl)cc4c32)CC1 [Example 10, 1-(1-Acryloylpiperidin-4-yl)-8-chloro-6-fluoro-7-(3-hydroxynaphthalen-1-yl)-4-(((S)-1-methylpyrrolidin-2-yl)methoxy)-1,3-dihydro-2H-imidazo[4,5-c]quinolin-2-one] | 100 to 1000 nM | ≤ 100 nM |
| C=CC(=O)N1CCC(n2cnc3c(-c4cc(O)cc5ccccc45)nc4c(F)c(-c5cc(O)cc6ccccc56)c(Cl)cc4c32)CC1 [Example 11, 1-(4-(8-chloro-6-fluoro-4,7-bis(3-hydroxynaphthalen-1-yl)-1H-imidazo[4,5-c]quinolin-1-yl)piperidin-1-yl)prop-2-en-1-one] | 100 to 1000 nM | ≤ 100 nM |
| C=CC(=O)N1CCC(n2cnc3c(-c4c(O)cccc4F)nc4c(F)c(-c5c(O)cccc5F)c(Cl)cc4c32)CC1 [Example 12, 1-(4-(8-chloro-6-fluoro-4,7-bis(2-fluoro-6-hydroxyphenyl)-1H-imidazo[4,5-c]-quinolin-1-yl)piperidin-1-yl)prop-2-en-1-one] | 1000 to 5000 nM | 100 to 1000 nM |
| C=CC(=O)N1CCC(n2cnc3cnc4c(F)c(-c5c(O)cccc5F)c(Cl)cc4c32)CC1 [Example 13, 1-(4-(8-Chloro-6-fluoro-7-(2-fluoro-6-hydroxyphenyl)-1H-imidazo[4,5-c]-quinolin-1-yl)piperidin-1-yl)prop-2-en-1-one] | 1000 to 5000 nM | 100 to 1000 nM |
| C=CC(=O)N1CC[C@H](n2cnc3c(N4CC(N(C)C)C4)nc4c(F)c(-c5cccc(C)c5C)c(Cl)cc4c32)C[C@H]1CC#N [Example 16, 2-((2S,4S)-1-acryloyl-4-(8-chloro-4-(3-(dimethylamino)azetidin-1-yl)-7-(2,3-dimethylphenyl)-6-fluoro-1H-imidazo[4,5-c]quinolin-1-yl)piperidin-2-yl)acetonitrile] | ≤ 100 nM | ≤ 100 nM |
| C=CC(=O)N1CC[C@H](n2cnc3c(N4CC(N(C)C)C4)nc4c(F)c(-c5cccc(C#N)c5C)c(Cl)cc4c32)C[C@H]1CC#N [Example 17, 3-(1-((2S,4S)-1-acryloyl-2-(cyanomethyl)piperidin-4-yl)-8-chloro-4-(3-(dimethylamino)azetidin-1-yl)-6-fluoro-1H-imidazo[4,5-c]quinolin-7-yl)-2-methylbenzonitrile] | ≤ 100 nM | ≤ 100 nM |
| C=CC(=O)N1CC[C@H](n2cnc3c(N4CC(N(C)C)C4)nc4c(F)c(-c5cccc(F)c5C)c(Cl)cc4c32)C[C@H]1CC#N [Example 18, 2-((2S,4S)-1-acryloyl-4-(8-chloro-4-(3-(dimethylamino)azetidin-1-yl)-6-fluoro-7-(3-fluoro-2-methylphenyl)-1H-imidazo[4,5-c]quinolin-1-yl)piperidin-2-yl)acetonitrile] | ≤ 100 nM | ≤ 100 nM |
| C=CC(=O)N1CC[C@H](n2cnc3c(N4CC(N(C)C)C4)nc4c(F)c(-c5cccc(C)c5Cl)c(Cl)cc4c32)C[C@H]1CC#N [Example 19, 2-((2S,4S)-1-acryloyl-4-(8-chloro-7-(2-chloro-3-methylphenyl)-4-(3-(dimethylamino)azetidin-1-yl)-6-fluoro-1H-imidazo[4,5-c]quinolin-1-yl)piperidin-2-yl)acetonitrile] | ≤ 100 nM | ≤ 100 nM |
| C=CC(=O)N1CC[C@H](n2cnc3c(N4CC(N(C)C)C4)nc4c(F)c(-c5ccccc5C)c(Cl)cc4c32)C[C@H]1CC#N [Example 20, 2-((2S,4S)-1-acryloyl-4-(8-chloro-4-(3-(dimethylamino)azetidin-1-yl)-6-fluoro-7-(o-tolyl)-1H-imidazo[4,5-c]quinolin-1-yl)piperidin-2-yl)acetonitrile] | ≤ 100 nM | ≤ 100 nM |
| C=CC(=O)N1CC[C@H](n2cnc3c(N4CC(N(C)C)C4)nc4c(F)c(-c5cc(O)cc6ccccc56)c(Cl)cc4c32)C[C@H]1C(N)=O [Example 21, (2S,4S)-1-acryloyl-4-(8-chloro-4-(3-(dimethylamino)azetidin-1-yl)-6-fluoro-7-(3-hydroxynaphthalen-1-yl)-1H-imidazo[4,5-c]quinolin-1-yl)piperidine-2-carboxamide] | ≤ 100 nM | ≤ 100 nM |
| C=CC(=O)N1CC[C@H](n2cnc3c(N4CC(N(C)C)C4)nc4c(F)c(-c5cc(O)cc6ccccc56)c(Cl)cc4c32)C[C@H]1C#N [Example 22, (2S,4S)-1-acryloyl-4-(8-chloro-4-(3-(dimethylamino)azetidin-1-yl)-6-fluoro-7-(3-hydroxynaphthalen-1-yl)-1H-imidazo[4,5-c]quinolin-1-yl)piperidine-2-carbonitrile] | ≤ 100 nM | ≤ 100 nM |
